From patent US20230067194A1, “METHOD FOR TREATMENT OF ACQUIRED COGNITIVE DEFICITS” (CORNELL UNIVERSITY, priority 2020, published 2023)
Entries after “also recorded” stand apart in the source; their conditions may differ.

Columns and labels:
SBI mice = assay: Sleep-wake cycle LFP power spectra in secondary-blast injury (SBI) mice with sodium oxybate injection; type: in vivo
Protocol: FIGS. 7A-7B. Effects of sodium oxybate injection on the sleep-wake cycle of SBI mice. The top panels display the delta power during the dark (blue; daytime) and light (yellow; sleep time) within 24 hours in (A) Non-REM, or (B) Wake mice. The pink vertical lines represent the time in which animals received an intraperitoneal injection of sodium oxybate (SO; 400 mg/Kg) diluted in saline. The bottom panels show the LFP power spectra obtained from sleep periods and wake periods with and without sodium oxybate. In (A), the dark blue line represents NREM sleep without sodium oxybate administration and the red line represents NREM sleep with sodium oxybate administration. In (B), the dark blue line represents Wake without sodium oxybate administration during prior sleep and the red line represents Wake with sodium oxybate administration during prior sleep. Application of sodium oxybate during the night results in elevation of delta (1-5 Hz) LFP power and increases during the subsequent wakeful period in beta (15-30 Hz) and gamma (>30 Hz) LFP. Importantly, consistent with our theory because of the short half-life of sodium oxybate these changes in wakeful LFP power reflect alteration of cortical neuronal properties linked to the increased delta during sleep induced by sodium oxybate.
The inventors inflicted a secondary-blast injury (SBI) to mice targeting the anterior forebrain mesocircuit, which corresponds to the frontal/prefrontalcortical-pallidal thalamocortical loop systems.
The inventors examined animals' sleep-wake cycle before, after the SBI, and while injecting sodium oxybate (400 mg/Kg; FIG. 7A-7B). Local field potentials (LFPs) were recorded from the frontal area and neck-EMG activity to detect and extract the different sleep/wake cycle components—Non-REM, REM, and Wake state. The inventors examined the whole range of biological LFP frequencies before and after sodium oxybate injection by calculating power spectral density using Thomson's multi-taper method implemented using the Chronux tool box from MATLAB.

[1] = cited from earlier work
[2] = FIG. 7 legend, intraperitoneal 400 mg/Kg during prior sleep
[3] = wake state post-sodium oxybate injection (400 mg/Kg), 400 mg/kg

O=C(O)CCCO [sodium oxybate]
beta (15-30 Hz) LFP power during the subsequent wakeful period (SBI mice; [2]): increases
gamma (>30 Hz) LFP power during the subsequent wakeful period (SBI mice; [2]): increases
delta (1-5 Hz) LFP power (SBI mice; FIG. 7 legend, intraperitoneal 400 mg/Kg in saline, application during the night, NREM sleep): elevation
delta oscillations (1-4 Hz) LFP power in Non-REM (SBI mice; sodium oxybate 400 mg/Kg injected right before the sleep time (9 pm), frontal LFP): increase; also recorded: elevation
beta (20-40 Hz) LFP power during the wake state (SBI mice; [3]): higher; also recorded: increases
gamma (>40 Hz) LFP power during the wake state (SBI mice; [3]): higher; also recorded: increases
persistence of the elevation of delta power during the wakeful period (SBI mice; wakeful period after night application of sodium oxybate): does not persist
SWS (slow wave sleep) ([1]; dose-dependent): dose-dependent upregulation
alpha-delta sleep ([1]; in several conditions): suppress alpha-delta sleep
